± gives the expanded uncertainty stated by the source.
Conditions: 343.15 K, Liquid, Vibrating tube method

CCCCCC(=O)OCC(COC(=O)CCCCC)(COC(=O)CCCCC)COC(=O)CCCCC [pentaerythritol tetrahexanoate]
Conditions	mass density [kg/m3]
13093 kPa	966.8 ± 1.2
13131 kPa	966.9 ± 1.2
13169 kPa	966.9 ± 1.2
13207 kPa	966.9 ± 1.2
13245 kPa	966.9 ± 1.2
13290 kPa	967 ± 1.2
13328 kPa	967.2 ± 1.2
13373 kPa	967 ± 1.2
13409 kPa	967.1 ± 1.2
13559 kPa	967.3 ± 1.2
13566 kPa	967.3 ± 1.2
13908 kPa	967.5 ± 1.2
13933 kPa	967.3 ± 1.2
13985 kPa	967.4 ± 1.2
14253 kPa	967.7 ± 1.2
14284 kPa	967.7 ± 1.2
14335 kPa	967.9 ± 1.2
14361 kPa	967.8 ± 1.2
14387 kPa	967.8 ± 1.2
14418 kPa	967.8 ± 1.2
14469 kPa	967.9 ± 1.2
14756 kPa	968.1 ± 1.2
14783 kPa	968.1 ± 1.2
14816 kPa	968.1 ± 1.2
14843 kPa	968.2 ± 1.2
15289 kPa	968.4 ± 1.2
15317 kPa	968.4 ± 1.2
15350 kPa	968.4 ± 1.2
15379 kPa	968.4 ± 1.2
15408 kPa	968.4 ± 1.2
15436 kPa	968.6 ± 1.2
15470 kPa	968.5 ± 1.2
15498 kPa	968.6 ± 1.2
15525 kPa	968.6 ± 1.2
15558 kPa	968.6 ± 1.2
15584 kPa	968.6 ± 1.2
15615 kPa	968.6 ± 1.2
16026 kPa	968.9 ± 1.2
16081 kPa	968.9 ± 1.2
16112 kPa	968.9 ± 1.2
16138 kPa	969 ± 1.2
16163 kPa	969 ± 1.2
16189 kPa	969.1 ± 1.2
16220 kPa	969 ± 1.2
16246 kPa	969.1 ± 1.2
16272 kPa	969 ± 1.2
16303 kPa	969 ± 1.2
16328 kPa	969.2 ± 1.2
16525 kPa	969.2 ± 1.2
16552 kPa	969.4 ± 1.2
16584 kPa	969.3 ± 1.2
16611 kPa	969.4 ± 1.2
16638 kPa	969.2 ± 1.2
16666 kPa	969.3 ± 1.2
16699 kPa	969.4 ± 1.2
16726 kPa	969.4 ± 1.2
16754 kPa	969.4 ± 1.2
16782 kPa	969.5 ± 1.2
16815 kPa	969.5 ± 1.2
16844 kPa	969.5 ± 1.2
17457 kPa	970 ± 1.2
17484 kPa	970 ± 1.2
17516 kPa	970 ± 1.2
17543 kPa	970 ± 1.2
17571 kPa	970 ± 1.2
17599 kPa	969.9 ± 1.2
17632 kPa	970 ± 1.2
17686 kPa	970 ± 1.2
17714 kPa	970.1 ± 1.2
17747 kPa	970.3 ± 1.2
17775 kPa	970.2 ± 1.2
17808 kPa	970.2 ± 1.2
17836 kPa	970 ± 1.2
17864 kPa	970.2 ± 1.2
17898 kPa	970.1 ± 1.2
17926 kPa	970.3 ± 1.2
17954 kPa	970.3 ± 1.2
17983 kPa	970.2 ± 1.2
18017 kPa	970.3 ± 1.2
18046 kPa	970.3 ± 1.2
18080 kPa	970.3 ± 1.2
18109 kPa	970.3 ± 1.2
18137 kPa	970.4 ± 1.2
18165 kPa	970.3 ± 1.2
18200 kPa	970.4 ± 1.2
18228 kPa	970.5 ± 1.2
18261 kPa	970.5 ± 1.2
18289 kPa	970.4 ± 1.2
18316 kPa	970.6 ± 1.2
18346 kPa	970.5 ± 1.2
18370 kPa	970.6 ± 1.2
18394 kPa	970.5 ± 1.2
18418 kPa	970.6 ± 1.2
18446 kPa	970.5 ± 1.2
18471 kPa	970.6 ± 1.2
18495 kPa	970.7 ± 1.2
18524 kPa	970.7 ± 1.2
18656 kPa	970.8 ± 1.2
18681 kPa	970.8 ± 1.2
18706 kPa	970.8 ± 1.2
18732 kPa	970.7 ± 1.2
18761 kPa	970.8 ± 1.2
18787 kPa	970.9 ± 1.2
18812 kPa	970.8 ± 1.2
18842 kPa	970.9 ± 1.2
18867 kPa	970.9 ± 1.2
18923 kPa	971 ± 1.2
18949 kPa	970.9 ± 1.2
18975 kPa	971.1 ± 1.2
19008 kPa	971 ± 1.2
19034 kPa	971 ± 1.2
19060 kPa	971.1 ± 1.2
19085 kPa	971 ± 1.2
19632 kPa	971.4 ± 1.2
19654 kPa	971.4 ± 1.2
19677 kPa	971.5 ± 1.2
19700 kPa	971.5 ± 1.2
19726 kPa	971.4 ± 1.2
19747 kPa	971.4 ± 1.2
19768 kPa	971.5 ± 1.2
19790 kPa	971.5 ± 1.2
19809 kPa	971.6 ± 1.2
19830 kPa	971.5 ± 1.2
19850 kPa	971.6 ± 1.2
20110 kPa	971.8 ± 1.2
20121 kPa	971.8 ± 1.2
20124 kPa	971.8 ± 1.2
20125 kPa	971.7 ± 1.2
20126 kPa	971.8 ± 1.2
20127 kPa	971.9 ± 1.2
20128 kPa	971.8 ± 1.2
21458 kPa	972.6 ± 1.2
21485 kPa	972.7 ± 1.2
21513 kPa	972.7 ± 1.2
21545 kPa	972.7 ± 1.2
21573 kPa	972.7 ± 1.2
21600 kPa	972.8 ± 1.2
21630 kPa	972.7 ± 1.2
21654 kPa	972.8 ± 1.2
21678 kPa	972.6 ± 1.2
21708 kPa	972.7 ± 1.2
21835 kPa	972.9 ± 1.2
21865 kPa	972.9 ± 1.2
21890 kPa	973 ± 1.2
21915 kPa	973 ± 1.2

Reference: the NIST ThermoML archive (doi:10.1021/je060271a)
